Read-outs that look alike come from different tables or passages of the source.
How the values were obtained:
[1] = biological target: AmpC (P. aeruginosa) (Pseudomonas aeruginosa (strain ATCC 15692 / DSM 22644 / CIP 104116 / JCM 14847 / LMG 12228 / 1C / PRS 101 / PAO1), UniProt P24735); assay: biochemical
Procedure: The Class C enzyme activities were measured in the presence of the test inhibitor in spectrophotometric assay against the commercially available substrate, nitrocefin. The enzyme AmpC (P. aeruginosa.), and the substrate, were dissolved in 100 mM KH2PO4 buffer (pH 7). The buffer also contains 0.005% BSA. The test inhibitor was dissolved in DMSO and diluted 1:20 in the assay, resulting in a final concentration range of 50 μM to 0.0002 μM. In a 96-well microplate, the test inhibitor was incubated with the beta-lactamase enzyme for 40 minutes at ambient temperature, the substrate solution was added, and the incubation continued for another 40 minutes. […] The IC50 value was determined from semi logarithmic plots of enzyme inhibition versus inhibitor concentration, with a curve generated using a 4-parameter fit.

[2] = biological target: KPC-2 (K. pneumoniae) (Klebsiella pneumoniae, UniProt Q9F663); assay: biochemical
[3] = tested on: CL 5701 (Pseudomonas aeruginosa; Pa AmpC); assay: Synergy assay (checkerboard) with imipenem against P. aeruginosa strain CL5701; format: cell-based; conditions: for 2X Synergy CL5701: BLI concentration reducing the MIC of imipenem by a factor of 2, P. aeruginosa strain CL5701
[4] = tested on: CL 6569 (Klebsiella pneumoniae; KPC-2); assay: Synergy assay (checkerboard) with imipenem against K. pneumoniae strain CL6569; conditions: for 16X Synergy CL6569: BLI concentration reducing the MIC of imipenem by a factor of 16, K. pneumoniae strain CL6569; for 32X Synergy CL6569: BLI concentration reducing the MIC of imipenem by a factor of 32, K. pneumoniae strain CL6569; for 64X Synergy CL6569: BLI concentration reducing the MIC of imipenem by a factor of 64, K. pneumoniae strain CL6569
Excerpt: The assay determines the concentration of a β-lactamase inhibitor required to reduce the MIC of a β-lactam antibiotic by one-half, one-quarter, one-eighth, one-sixteenth and one-thirty-second against strains of bacteria normally resistant to the antibiotic in question. This is accomplished by titrating the BLI in a serial dilution across a microtiter plate while at the same time titrating the antibiotic in a serial dilution down the microtiter plate and then inoculating the plate with the bacterial strain in question and allowing the bacteria to grow up overnight. Each well in this microplate checkerboard contains a different combination of concentrations of the inhibitor and the antibiotic allowing a full determination of any synergy between the two.
Plates are left at 37° C. for about 20 hours and scored for growth by eye.
Synergy may be expressed as a ratio of the minimum inhibitory concentration (MIC) of an antibiotic tested in the absence of a β-lactamase inhibitor to the MIC of the same antibiotic tested in the presence of the β-lactamase inhibitor. […] Alternatively, the synergy effect may be expressed as a factor, again, utilizing a concentration of the BLI to lower the MIC of the antibiotic.

[5] = Table 2, read-out: P.a. AmpC IC50
[6] = BLI concentration reducing the MIC of imipenem by a factor of 4, P. aeruginosa strain CL5701
[7] = BLI concentration reducing the MIC of imipenem by a factor of 8, P. aeruginosa strain CL5701
[8] = Table 3, read-out: P.a. AmpC IC50
[9] = Table 2, read-out: K.p. KPC-2 IC50
[10] = Table 3, read-out: K.p. KPC-2 IC50

Sequence of KPC-2 (K. pneumoniae) (Q9F663 25-293 limits assumed): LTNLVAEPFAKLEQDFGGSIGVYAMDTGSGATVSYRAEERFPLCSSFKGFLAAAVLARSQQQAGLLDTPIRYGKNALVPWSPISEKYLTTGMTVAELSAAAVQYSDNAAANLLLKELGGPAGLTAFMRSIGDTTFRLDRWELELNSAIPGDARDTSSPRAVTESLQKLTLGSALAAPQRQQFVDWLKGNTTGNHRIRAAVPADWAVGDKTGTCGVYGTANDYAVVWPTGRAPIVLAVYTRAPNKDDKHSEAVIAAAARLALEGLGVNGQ
Sequence of AmpC (P. aeruginosa) (P24735 27-397): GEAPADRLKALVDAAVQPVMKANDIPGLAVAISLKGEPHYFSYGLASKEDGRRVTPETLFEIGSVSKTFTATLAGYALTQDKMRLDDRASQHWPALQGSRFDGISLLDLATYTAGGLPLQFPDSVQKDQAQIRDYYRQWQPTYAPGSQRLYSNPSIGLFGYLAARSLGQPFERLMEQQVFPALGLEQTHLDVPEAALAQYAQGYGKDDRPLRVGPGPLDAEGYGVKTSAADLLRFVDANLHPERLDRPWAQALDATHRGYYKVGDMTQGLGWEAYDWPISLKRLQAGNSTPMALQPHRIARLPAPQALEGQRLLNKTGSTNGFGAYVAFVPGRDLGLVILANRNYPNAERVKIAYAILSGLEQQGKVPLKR

Compound	IC50 [1, 5]	IC50 ([2]; K.p. KPC-2 IC50, Table 2)	2X Synergy CL5701 [3]	4X Synergy CL5701 [3, 6]	8X Synergy CL5701 [3, 7]	16X Synergy CL6569 [4]	32X Synergy CL6569 [4]	64X Synergy CL6569 [4]	IC50 [1]	4X Synergy CL5701 [3]	8X Synergy CL5701 [3]	IC50 [1, 8]	IC50 [2, 9]	IC50 [2, 10]
O=C(N[C@@H]1CCNC1)[C@@H]1CC[C@@H]2CN1C(=O)N2OS(=O)(=O)O [Example 4, (2S,5R)-7-Oxo-N-[(3R)-pyrrolidin-3-yl]-6-(sulfooxy)-1,6-diazabicyclo[3.2.1]-octane-2-carboxamide]	29000 nM	4400 nM	100/100/>100 μM	100/100/>100 μM	100/100/>100 μM	50 µM	100 µM	100 µM	–	–	–	–	–	–
O=C(Nc1ccncc1)[C@@H]1CC[C@@H]2CN1C(=O)N2OS(=O)(=O)O [Example 6, (2S,5R)-7-Oxo-N-pyridin-4-yl-6-(sulfooxy)-1,6-diazabicyclo[3.2.1]octane-2-carboxamide]	–	–	12.5 µM	–	–	50 µM	50 µM	> 100 µM	6 nM	25 µM	100 µM	–	–	–
CN(C)c1cc(NC(=O)[C@@H]2CC[C@@H]3CN2C(=O)N3OS(=O)(=O)O)ccn1 [Example 8, (2S,5R)—N-[2-(Dimethylamino)pyridin-4-yl]-7-oxo-6-(sulfooxy)-1,6-diazabicyclo[3.2.1]octane-2-carboxamide]	1.6 nM	–	12.5 µM	100 µM	> 100 µM	25 µM	25 µM	50 µM	–	–	–	16 nM	1.6 nM	16 nM
NCc1ccc(NC(=O)[C@@H]2CC[C@@H]3CN2C(=O)N3OS(=O)(=O)O)cc1 [Example 9, (2S,5R)—N-[4-(aminomethyl)phenyl]-7-oxo-6-(sulfooxy)-1,6-diazabicyclo[3.2.1]octane-2-carboxamide]	20 nM	–	0.78 µM	3.12 µM	6.25 µM	6.25 µM	6.25 µM	12.5 µM	–	–	–	–	72 nM	–
COc1cc(NC(=O)[C@@H]2CC[C@@H]3CN2C(=O)N3OS(=O)(=O)O)ccn1 [Example 7, (2S,5R)—N-(2-Methoxypyridin-4-yl)-7-oxo-6-(sulfooxy)-1,6-diazabicyclo[3.2.1]octane-2-carboxamide]	1.1 nM	–	50 µM	100 µM	> 100 µM	25 µM	50 µM	> 100 µM	–	–	–	11 nM	8 nM	8 nM
O=C(NC1CCNCC1)[C@@H]1CC[C@@H]2CN1C(=O)N2OS(=O)(=O)O [Example 1, (2S,5R)-7-oxo-N-piperidin-4-yl-6-(sulfooxy)-1,6-diazabicyclo[3.2.1]octane-2-carboxamide]	–	–	0.2 µM	3.12 µM	6.25 µM	6.25 µM	12.5 µM	12.5 µM	–	–	–	–	–	–
O=C(N[C@H]1CCCNCC1)[C@@H]1CC[C@@H]2CN1C(=O)N2OS(=O)(=O)O [Example 2, (2S,5R)—N-[(4S)-Azepan-4-yl]-7-oxo-6-(sulfooxy)-1,6-diazabicyclo[3.2.1]-octane-2-carboxamide]	–	–	3.12 µM	6.25 µM	6.25 µM	6.25 µM	12.5 µM	25 µM	69 nM	–	–	–	245 nM	245 nM
NC(=O)c1cccc(NC(=O)[C@@H]2CC[C@@H]3CN2C(=O)N3OS(=O)(=O)O)c1 [Example 70]	–	–	–	–	–	–	–	–	3 nM	–	–	–	–	26 nM
O=C(N[C@@H]1CCCNCC1)[C@@H]1CC[C@@H]2CN1C(=O)N2OS(=O)(=O)O [Example 22]	–	–	–	–	–	–	–	–	520 nM	–	–	–	–	225 nM
O=C(O[C@@H]1CCNC[C@@H]1F)[C@@H]1CC[C@@H]2CN1C(=O)N2OS(=O)(=O)O [Example 97]	–	–	–	–	–	–	–	–	–	–	–	49 nM	–	26 nM
O=C(Nc1ccnc(N2CCNCC2)n1)[C@@H]1CC[C@@H]2CN1C(=O)N2OS(=O)(=O)O [Example 85]	–	–	–	–	–	–	–	–	–	–	–	260 nM	–	20 nM
O=C(O[C@H]1CCNC[C@H]1F)[C@@H]1CC[C@@H]2CN1C(=O)N2OS(=O)(=O)O [Example 98]	–	–	–	–	–	–	–	–	–	–	–	46 nM	–	9 nM
O=C(N[C@@H]1CNC[C@H]1O)[C@@H]1CC[C@@H]2CN1C(=O)N2OS(=O)(=O)O [Example 29]	–	–	–	–	–	–	–	–	–	–	–	2500 nM	–	250 nM

From US8487093B2, “β-lactamase inhibitors” (Merck Sharp & Dohme Corp., priority 2008, dated 2013)
